Experimental data published in patent publication US20070037263A1, “Novel acetoacetyl-coa reductase and process for producing optically active alcohol” (priority 2003, published 2007).
One block for each compound: values may come before it.

Test system: RAX (acetoacetyl-CoA reductase)
Experiment: Ethyl 4-chloroacetoacetate reducing activity of RAX in the presence of inhibitors
Assay type: biochemical
Settings: for enzyme activity inhibited (in words): summary of Table 1
[1] = inhibitor 1.0 mM, 10 mM ethyl 4-chloroacetoacetate, 0.25 mM NADPH, pH 6.5, 30° C., 3 minutes, activity without inhibitor = 100%

SMILES: [Cl-].[Cl-].[Co+2] [CoCl2]
Relative activity (pH 6.5): 108%

Relative activity [1]: 97%
SMILES: [Cl][Mn][Cl] [MnCl2]

SMILES: [Cl][Hg][Cl] [HgCl2, mercury chloride]
Relative activity (inhibitor 0.01 mM, 10 mM ethyl 4-chloroacetoacetate, 0.25 mM NADPH, pH 6.5, 30° C., 3 minutes, activity without inhibitor = 100%): 0%
enzyme activity inhibited (in words): inhibited

SMILES: O=S(=O)([O-])[O-].[Zn+2] [ZnSO4]
Relative activity [1]: 81%

Relative activity [1]: 103%
SMILES: CCN1C(=O)C=CC1=O [N-Ethylmaleimide]

SMILES: O=C(O)CN(CCN(CC(=O)O)CC(=O)O)CC(=O)O [EDTA]
Relative activity (pH 6.5): 83%

SMILES: O=S(=O)([O-])[O-].[Cu+2] [CuSO4, copper sulfate]
Relative activity [1]: 0%
enzyme activity inhibited (in words): inhibited

SMILES: O=C(O)c1cc[c]([Hg][Cl])cc1 [p-Chloromercuribenzoic acid]
Relative activity [1]: 0%
enzyme activity inhibited (in words): inhibited

SMILES: O=[N+]([O-])[O-].[Ag+] [AgNO3, silver nitrate]
Relative activity (inhibitor 0.1 mM, 10 mM ethyl 4-chloroacetoacetate, 0.25 mM NADPH, pH 6.5, 30° C., 3 minutes, activity without inhibitor = 100%): 0%
enzyme activity inhibited (in words): inhibited

SMILES: O=S(=O)([O-])[O-].[Mg+2] [MgSO4]
Relative activity [1]: 100%

SMILES: O=C(O)CI [Iodoacetic acid]
Relative activity (pH 6.5): 98%

SMILES: O=S(=O)(F)Cc1ccccc1 [Phenylmethylsulfonyl fluoride]
Relative activity [1]: 108%
